Experimental data published in article PMC4805651, “Inhibition of DNA–Topoisomerase I by Acylated Triterpene Saponins from Pittosporum angustifolium Lodd” (Natural Products and Bioprospecting, 2016).

Key:
human topoisomerase I = molecular target: T1, human topoisomerase I (Homo sapiens, UniProt P11387); experiment: DNA relaxation assay on human topoisomerase I (gel based, supercoiled pBR322); type: biochemical; conditions: ±SD, n = 2; relaxation of supercoiled pBR322, 37 °C, 30 min, 10 % DMSO; read-out: IC50 [µM] Topo I
T1 construct: purchased Inspiralis Limited, UK (assay run by the vendor as a service)
T1 sequence (P11387 1-765): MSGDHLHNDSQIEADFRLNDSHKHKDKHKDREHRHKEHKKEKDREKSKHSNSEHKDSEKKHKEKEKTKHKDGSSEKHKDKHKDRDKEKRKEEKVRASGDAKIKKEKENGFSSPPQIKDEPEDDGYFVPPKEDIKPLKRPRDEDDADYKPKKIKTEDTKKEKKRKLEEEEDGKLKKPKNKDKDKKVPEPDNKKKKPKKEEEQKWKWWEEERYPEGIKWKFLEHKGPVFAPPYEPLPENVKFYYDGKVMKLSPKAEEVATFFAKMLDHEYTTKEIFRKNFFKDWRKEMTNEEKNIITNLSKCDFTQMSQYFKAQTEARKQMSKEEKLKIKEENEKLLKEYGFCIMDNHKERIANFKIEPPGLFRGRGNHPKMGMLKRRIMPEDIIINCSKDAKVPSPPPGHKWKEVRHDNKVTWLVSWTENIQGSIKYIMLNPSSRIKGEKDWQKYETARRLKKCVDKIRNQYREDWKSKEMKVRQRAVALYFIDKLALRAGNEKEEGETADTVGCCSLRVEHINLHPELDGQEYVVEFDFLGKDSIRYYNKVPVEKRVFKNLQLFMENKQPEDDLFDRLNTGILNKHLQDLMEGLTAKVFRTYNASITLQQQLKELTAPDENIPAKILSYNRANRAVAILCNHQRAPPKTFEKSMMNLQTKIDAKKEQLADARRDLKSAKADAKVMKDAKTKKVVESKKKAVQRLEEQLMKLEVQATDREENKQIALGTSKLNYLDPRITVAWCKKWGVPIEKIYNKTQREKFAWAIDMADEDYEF
Method: The relaxation assay on human topoisomerase I was carried out by Inspiralis Limited®, UK, according to their SOP (standard operating procedure). All compounds were dissolved in DMSO and then diluted to yield concentration ranges from 1 nM to 1 mM. […] 1 U (the amount of enzyme required to completely relax the substrate) was incubated with 0.5 µg supercoiled plasmid DNA (pBR322) at 37 °C for 30 min in a 30 µL reaction mixture of 20 mM Tris HCL (pH 7.5), 200 mM NaCl, 0.25 mM EDTA and 5 % glycerol. The reaction was stopped by adding 30 µL chloroform/iso-amyl alcohol (26:1) and 20 µL Stop Dye (40 % sucrose, 100 mM Tris HCl (pH 7.5), 10 mM EDTA, 0.5 μg/mL bromophenol blue) before being loaded on a 0.8 % TAE gel run for 2 h at 80 V. Then bands were visualized by ethidium staining for 10 min and analyzed by documentation equipment (Syngene, Cambridge, UK), gel scanning software (Syngene, GeneTools) and SigmaPlot version 12.3. All assays were carried out in a final DMSO concentration of 10 % and were performed twice.

[1] = test system: 5637: human urinary bladder carcinoma cells; design: method as in PMID 24046217, PMID 25069157; conditions: ±SD, ref [3], [5], [10], read-out: IC50 [µM] Cytotoxicity 5637; cited from earlier work
[2] = test system: MCF-7: human breast cancer cells; design: method as in PMID 24046217, PMID 25069157; conditions: ±SD, ref [3], [5], [10], read-out: IC50 [µM] Cytotoxicity MCF-7; cited from earlier work
[3] = test system: LN-18: human glioblastoma cells; design: method as in PMID 24046217, PMID 25069157; conditions: ±SD, ref [3], [5], [10], read-out: IC50 [µM] Cytotoxicity LN-18; cited from earlier work
[4] = test system: HaCat: human keratinocyte cells; design: method as in PMID 24046217, PMID 25069157; conditions: ±SD; HaCaT human keratinocyte cells (non-tumorigenic); ref [3], [5], [10]; read-out: IC50 [µM] Cytotoxicity HaCaT; cited from earlier work

SMILES: CC=C(C)C(=O)OC1CC(C)(C)CC2C3=CCC4C5(C)CCC(OC6OC(C(=O)O)C(OC7OC(CO)C(O)C7O)C(OC7OCC(O)C(O)C7O)C6OC6OC(CO)C(O)C(O)C6O)C(C)(C)C5CCC4(C)C3(C)C(O)C(O)C12CO (centres unmarked) [Compound 1, pittangretoside A]
- IC50 (human topoisomerase I): 7.5 ± 0.6 µM
- IC50 [1]: 4.1 ± 1 µM
- IC50 [2]: 25.7 ± 1.9 µM
- IC50 [3]: 7.6 ± 1.7 µM
- IC50 [4]: 15.2 ± 0.9 µM

SMILES: CC=C(C)C(=O)OC1CC(C)(C)CC2C3=CCC4C5(C)CCC(OC6OC(C(=O)O)C(O)C(O)C6OC6OC(CO)C(O)C(O)C6OC6OC(C)C(O)C(O)C6O)C(C)(C)C5CCC4(C)C3(C)C(O)C(O)C12CO (centres unmarked) [Compound 2, pittangretoside D]
- IC50 (human topoisomerase I): 4.8 ± 2.4 µM
- IC50 [1]: 17.9 ± 1 µM
- IC50 [2]: 36.6 ± 5.7 µM
- IC50 [3]: 35.7 ± 5.2 µM
- IC50 [4]: > 118 µM

SMILES: CCC(C)C(=O)OCC12C(O)CC(C)(C)CC1C1=CCC3C4(C)CCC(OC5OC(C(=O)O)C(OC6OC(CO)C(O)C6O)C(OC6OCC(O)C(O)C6O)C5OC5OC(CO)C(O)C(O)C5O)C(C)(C)C4CCC3(C)C1(C)C(O)C2O (centres unmarked) [Compound 3, pittangretoside F]
- IC50 (human topoisomerase I): 16.8 ± 0.4 µM
- IC50 [1]: > 106 µM

SMILES: CC=C(C)C(=O)OC1C(OC(C)=O)C2(CO)C(CC1(C)C)C1=CCC3C4(C)CCC(OC5OC(C(=O)O)C(OC6OC(CO)C(O)C6O)C(OC6OCC(O)C(O)C6O)C5OC5OC(CO)C(O)C(O)C5O)C(C)(C)C4CCC3(C)C1(C)C(O)C2O (centres unmarked) [Compound 4, IIIA3]
- IC50 (human topoisomerase I): 8.6 ± 0.1 µM
- IC50 [2]: 19.8 ± 2.2 µM
- IC50 [3]: 13.4 ± 0.8 µM
- IC50 [4]: 15.9 ± 1.3 µM

SMILES: CC=C(C)C(=O)OC1C(OC(C)=O)C(C)(C)CC2C3=CCC4C5(C)CCC(OC6OC(C(=O)O)C(OC7OC(CO)C(O)C7O)C(OC7OCC(O)C(O)C7O)C6OC6OC(CO)C(O)C(O)C6O)C(C)(C)C5CCC4(C)C3(C)C(O)C(O)C21CO (centres unmarked) [Compound 5, pittangretoside N]
- IC50 (human topoisomerase I): 6.5 ± 0.6 µM
- IC50 [2]: 28.7 ± 3.6 µM
- IC50 [3]: 10.4 ± 2.7 µM
- IC50 [4]: 34.1 ± 2.8 µM

SMILES: CCC(C)(OC(C)=O)C(=O)OC1C(OC(C)=O)C(C)(C)CC2C3=CCC4C5(C)CCC(OC6OC(C(=O)O)C(OC7OC(CO)C(O)C7O)C(OC7OCC(O)C(O)C7O)C6OC6OC(CO)C(O)C(O)C6O)C(C)(C)C5CCC4(C)C3(C)C(O)C(O)C21CO (centres unmarked) [Compound 6, pittangretoside O]
- IC50 (human topoisomerase I): 7.5 ± 1.6 µM
- IC50 [2]: 22.9 ± 1.8 µM
- IC50 [3]: 4.4 ± 0.7 µM
- IC50 [4]: 19.2 ± 2.1 µM

SMILES: CCC(C)C(=O)OC1C(OC(C)=O)C2(CO)C(CC1(C)C)C1=CCC3C4(C)CCC(OC5OC(C(=O)O)C(OC6OC(CO)C(O)C6O)C(OC6OCC(O)C(O)C6O)C5OC5OC(CO)C(O)C(O)C5O)C(C)(C)C4CCC3(C)C1(C)C(O)C2O (centres unmarked) [Compound 7, pittangretoside P]
- IC50 (human topoisomerase I): 4.2 ± 0.2 µM
- IC50 [2]: 28.7 ± 3.2 µM
- IC50 [3]: 7 ± 0.9 µM
- IC50 [4]: 11.2 ± 0.5 µM

SMILES: CCC(C)C(=O)OC1CC(C)(C)CC2C3=CCC4C5(C)CCC(OC6OC(C(=O)O)C(OC7OC(CO)C(O)C7O)C(OC7OCC(O)C(O)C7O)C6OC6OC(CO)C(O)C(O)C6O)C(C)(C)C5CCC4(C)C3(C)C(O)C(O)C12CO (centres unmarked) [Compound 8]
- IC50 (human topoisomerase I): 2.8 ± 1.1 µM
- IC50 [3]: 3.9 ± 0.1 µM

SMILES: CC=C(C)C(=O)OC1C(OC(=O)C(C)=CC)C2(CO)C(CC1(C)C)C1=CCC3C4(C)CCC(OC5OC(C(=O)O)C(OC6OC(CO)C(O)C6O)C(OC6OCC(O)C(O)C6O)C5OC5OC(CO)C(O)C(O)C5O)C(C)(C)C4CCC3(C)C1(C)C(O)C2O (centres unmarked) [Compound 9, IIIC4]
- IC50 (human topoisomerase I): 46.5 ± 11.5 µM
- IC50 [2]: 8.9 ± 0.8 µM
- IC50 [3]: 4.6 ± 0.5 µM
- IC50 [4]: 2.2 ± 0.5 µM

SMILES: CC=C(C)C(=O)OC1C(OC(=O)C(C)=CC)C2(CO)C(O)CC3(C)C(=CCC4C5(C)CCC(OC6OC(C(=O)O)C(OC7OC(CO)C(O)C7O)C(OC7OCC(O)C(O)C7O)C6OC6OC(CO)C(O)C(O)C6O)C(C)(C)C5CCC43C)C2CC1(C)C (centres unmarked) [Compound 10, pittangretoside T]
- IC50 (human topoisomerase I): 5 ± 3.3 µM
